Data taken from patent US5211657A, “Laminin a chain deduced amino acid sequence, expression vectors and active synthetic peptides” (The United States Government as represented by the …, priority 1988, dated 1993).

Tests used:
[1] = tested on: HUVEC (endothelia cell); test: Cell attachment and spreading on coated dish (Table IV); format: cell-based, Human; details: endothelial cells
Experimental: (§1) A further aspect of the invention provides synthetic peptides from the deduced amino acid sequence of the cDNA sequence for the A chain. These synthetic peptides can be synthesized by any suitable method such as one previously used by our group (Graf et al (1987) Cell 48:989). A variety of synthetic peptides are tested for biological activity such as promoting cell adhesion, migration, growth and preventing invasion of tumor cells (see locations and sequences of the active peptides in FIG. 14 and Table III). […] A: increasing amounts of peptide were coated onto a 24 well dish in DMEM for 2 hours. The unbound peptide was removed and the wells were incubated with DMEM containing 3% BSA before the addition of cells. B and C: Morphological appearance of cells attached on peptide and laminin substrates. In the absence of peptides or laminin, few cells were attached. Table III is shown below.
(§2) This peptide is active with various cells and its activity can be equal to that of laminin itself in terms of the total number of cells that can attach to surfaces coated with the peptide. […] Table IV is shown below.

[2] = tested on: endothelial cell binding to laminin; test: Competition with intact laminin for endothelial cell binding; format: cell-based; details: endothelial cells
Excerpt: Many of the same cells which recognize peptide PA22-2 and YIGSR also recognize and bind to PA21 and PA26 but the degree of binding is quite different. […] Since the sequence of PA36 is unique to laminin, the response of endothelial cells to PA36 is likely to be specific to the peptide.

[3] = tested on: neural cell lines (PC-12, NG108-15) and primary cultures of neural cells; details: background statement; cited from earlier work
[4] = tested on: HT-1080 fibrosarcoma cells; details: background statement; cited from earlier work
[5] = tested on: EGF-like activity; details: personal communication; cited from earlier work
[6] = tested on: various cells; test: Cell attachment to peptide coated on plastic; format: cell-based
Experimental: as §1, §2

[7] = tested on: cells in culture and tumor cells in vivo; test: Various biological activities with cells in culture and tumor cells in vivo (comparison of derivatives); details: all presently found activities
[8] = tested on: B16F10 (melanoma); test: Cell attachment and spreading on coated dish (Table IV); format: cell-based
Experimental: as §1, §2

[9] = tested on: HT1080 (fibrosarcoma); test: as above; format: cell-based; details: HT-1080
Experimental: as §1, §2

[10] = tested on: B16F10 Melonoma Cells; test: Lung tumor formation after tail vein injection of B16F10 melanoma cells with peptide; format: in vivo, mice; details: for Number of Tumors/animal: lung surface tumors after 3 weeks, no peptide: 26
Excerpt: It is well known that tumor cells must attach degrade, and migrate through basement membranes in order to spread to distant sites. Laminin is known to increase the metastic phenotype of tumor cells and the number of tumors formed in mice. Using a line of B16 melanoma cells which specifically colonize the lung when injected into mouse tail vein, we have studied the effect of peptide PA22-2 on the formation of lung tumors.
In these studies, various amounts of peptide PA22-2 are mixed with the B16F10 melanoma cells (5×10^4) and injected into mice via the tail vein. Eight mice are injected for each concentration of test peptide. After 2-3 weeks, the mice are sacrificed and the number of […] colonies on the lung surface are counted.
10^5 melanoma cells in a final volume of 0.2 ml of Dulbecco's
modification of Eagle's medium (DMEM) containing the indicated amount and
type of peptide were injected in the tail vein. Eight mice were in each
test group. After 3 weeks, the mice were sacrificed, lungs were removed.
The number of tumors on the surface of the lungs was determined by using
Each group contained 8 mice which were injected with […] B16F10 Melanoma cells via the tail vein in a final volume of 0.2 DMEM containing the designated amount of peptide. After three weeks, the animals were sacrificed and the number of colonies on the surface of the lungs was determined.

[11] = tested on: laminin-mediated cell adhesion; test: Blocking of laminin-mediated cell attachment by soluble peptide; format: cell-based; details: laminin coated dish; peptide added with cells; one and a half hours
Experimental: Laminin was coated on the dish as described above, then peptide togehter with cells were added to the dishes and cell adhesion after one and a half hours was determined.

[12] = tested on: neural cell lines (PC-12, NG108-15) and primary cultures of neural cells; test: Neurite outgrowth / process formation on coated peptide; format: cell-based; details: peptide coated on plastic dish
Experimental: In fact, laminin promotes regeneration faster and over greater distances than any other factor described to date. […] It is active in a dose-dependent manner and is active both with neural cell lines (PC-12 FIGS. 17A and B and NG108-15) and with primary cultures of neural cells both from the peripheral and the central nervous system. The processes formed appear identical to those observed with intact laminin (see FIG. 17A).
The assay was carried out in a similar manner to the cell adhesion assay. 17A: Morphology after 4 hours. 17B: Dose response curve showing number of processes formed. Cells were directly counted from at least 10 microscopic fields.

[13] = tested on: Human umbilical vein endothelial cells; test: Endothelial cell tube formation on reconstituted basement membrane; format: cell-based
Experimental: Human umbilical vein endothelial cells when coated on a reconstituted basement membrane substrate rapidly (by 12 hours) organize into capillary-like structures (see FIG. 18A). […] It may have a potential clinical use in blocking blood vessel formation as for example, during the vascularization of tumors and in diabetic retinopathy (ex diabetic retinopathy or Kaposi sarcoma). […] 18A: Morphology of cells. Cells were plated on a reconstituted basement membrane substrate and after 2 and 18 hours it is apparent that the cells line up into capillary-like structures. […] 18B: Adhesion to peptides. 18C: peptide inhibition of tube formation.

[14] = tested on: HT-1080 fibrosarcoma cells; test: Collagenase production (collagen IV degrading enzymes in conditioned medium); format: cell-based; details: HT-1080 cells treated for 6 hours
Experimental: This enzyme is thought to be important in cancer where its production is correlated with the invasive and metastatic activity of malignant tumor cells. In fact, degradation of basement membranes by collagenase IV is a necessary step in the metastatic process. […] The cells were treated for 6 hours with various amounts of the peptide and then the conditional medium was assayed for the production of collagen IV degrading enzymes. The effect is dose-dependent and is not reproduced by any other peptide tested to date. The importance of localizing this activity to peptide PA22-2 is that it will now be possible to more precisely define the molecular events involved in the metastatic process. Competitive inhibitors of this activity can be readily designed by modification of the composition of the active peptide i.e. Dasmano acids, cyclic forms etc. There may also be situations where the production of the enzyme could be advantageous such as in speeding the migration of leukocytes to sites of infection.

[15] = tested on: B16-F10 and PC12 cells; test: Cell growth; format: cell-based
[16] = Heparin binding
[17] = tested on: cell migration; test: Cell migration; format: cell-based

Substance: CSKCQAGTFALR [PA36]
- Endothelial cell adhesion to peptide [1]: specifically active with endothelial cells for cell adhesion
- Competition with intact laminin for endothelial cell binding to laminin [2]: effectively competes with intact laminin for endothelial cell binding to laminin

Substance: Laminin: large glycoprotein localized to basement membranes, composed of three chains A, B1 and B2; prepared from EHS tumor
- Neurite outgrowth promoting activity (background) [3]: very active in promoting neurite outgrowth
- Collagenase production / release (background) [4]: induces the production of collagenase IV
- EGF-like activity [5]: exert EGF-like growth factor activity

Substance: XFALRGDNPQG [PA26]
- Cell adhesion / attachment to coated peptide [6]: support the attachment of many cells

Substance: XGQIKKSPAVKVT [pA31-2]
- Cell adhesion / attachment to coated peptide [6]: has some cell attachment activity

Substance: XGQIKKSPAVKVTHFKG [pA31-1]
- Cell adhesion / attachment to coated peptide [6]: active for cell attachment

Substance: XIKVAVSADR [PA22-4]
- Activity relative to PA22-2 [7]: almost equally active

Substance: XRKQAASIKVAVS [PA22-3]
- Activity relative to PA22-2 [7]: almost equally active

Substance: XSRARQAASIKVAVSADR [PA22-2]
- Spreading on substrates coated with the peptide [8]: spreading is observed
- Spreading on substrates coated with the peptide [9]: spreading is not observed
- Number of Tumors/animal ([10]; 0.5 mg peptide injected with melanoma cells in tail vein): 44
- Number of Tumors/animal ([10]; 1 mg peptide injected with melanoma cells in tail vein): 53
- Increase in the number of lung tumors ([10]; 1 mg/mouse): two-fold increase
- Cell adhesion / attachment to coated peptide [6]: promotes the adhesion of various epithelial cells in a rapid dose-dependent manner
- Blocking of laminin-mediated cell adhesion [11]: can complete (i.e. block) laminin-mediated cell adhesion
- Neurite outgrowth promoting activity [12]: mimics the neurite promoting activity of laminin
- Adhesion of HUVEC [13]: does not alter the adhesion of these cells
- Formation of capillary-like structures (tube formation) ([13]; HUVEC on reconstituted basement membrane): block the formation of capillary-like structures
- Production of collagenase [14]: increase in the production of collagenase to levels comparable to those observed with intact laminin
- Cell growth [15]: stimulate growth
- Heparin binding [16]: promote activity to bind heparin
- Cell migration [17]: active
